Holding throughout (format): cell-based
Test [1] concerns Escherichia coli ATCC 25922. The test can be described thus: Suspension quantitative sterilization experiment, Escherichia coli ATCC 25922. The conditions noted are these: suspension method, 6.25 g/L, action time 30 min. The protocol: (§1) (5) Operation Method of Suspension Quantitative Experiment:
(§2) a. The freeze-dried strain tube was provided, opened up under an aseptic condition, and an appropriate amount of nutrient broth was added thereto with a capillary pipette. The strain was melted and dispersed by gently blowing and sucking several times. A test tube containing 5.0 mL-10.0 mL of nutrient broth medium was provided, and a small amount of bacterial suspension was dropped thereto, and incubated at 37° C. for 18 h-24 h. The bacterial suspension of the first generation culture was taken by using an inoculation loop, and streaked and inoculated onto a nutrient agar medium plate, and incubated at 37° C. for 18 h-24 h. The typical colonies from the second generation culture was picked out, inoculated onto a nutrient agar slant, and incubated at 37° C. for 18 h-24 h, obtaining the third generation culture.
(§3) b. The monoclonal strains of the third generation culture of Escherichia coli ATCC 25922, Staphylococcus aureus ATCC 29213, and Pseudomonas aeruginosa ATCC 27853 were picked out respectively and placed in 3 mL of NMB. The strains were shaken in a constant temperature culture shaker for 3 h with a rotation speed of 220 rpm, obtaining a bacterial suspension with a concentration of (1-5)×10^8 CFU/mL.
(§4) c. 0.5 mL of bacterial suspension was added to a sterile test tube, and 0.5 mL of an organic interfering substance (0.03 mol/L PBS buffer) was then added thereto. They were mixed to be uniform, and placed in a water bath at 20° C.±1° C. for 5 min. 4.0 mL of the sample to be tested prepared in step (1) was drawn with a sterile pipette and injected into the mixed solution, mixed quickly, and the time was recorded immediately.
(§5) d. After the experimental bacteria interacted with the sample to be tested for the predetermined time of 1 min, 5 min, 15 min and 30 min. 0.5 mL of the mixture of the experimental bacteria and the sample to be tested was drawn respectively and added to 4.5 mL of a neutralizer, and mixed to be uniform.
(§6) e. After 10 min of neutralization, 1.0 mL of the sample solution was drawn, and the number of viable bacteria was determined by viable count method. After the viable count method, sample solution of each pipette was inoculated onto 2 plates. When the number of colonies growing on the plate was large, 10-fold dilution was performed, and then the viable bacteria was cultured and counted.
(§7) f. At the same time, PBS buffer was used to replace the sample to be tested, and a parallel test was performed as a positive control.
(§8) g. All test samples were placed in a 37° C. incubator overnight, and the results were observed.
(§9) h. The experiment was repeated for 3 times, the concentration of viable bacteria (CFU/mL) of each group was calculated, and converted to logarithmic value (N), and then the killing logarithmic value was calculated according to the following equation:
(§10) Killing logarithmic value (KL)=the logarithmic value of the average viable bacteria concentration of the control group (No)−the logarithmic value of the viable bacteria concentration of the test group (Nx).
(§11) When calculating the killing logarithmic value, two digits after the decimal point was kept, and digital round-off was allowed.

The test system of test [2] is Staphylococcus aureus ATCC 29213. The test can be described thus: Suspension quantitative sterilization experiment, Staphylococcus aureus ATCC 29213. Particulars: suspension method, 6.25 g/L, action time 30 min. Here is the method:
as §1, §2, §3, §4, §5, §6, §7, §8, §9, §10, §11

Test [3] relates to Pseudomonas aeruginosa ATCC 27853. The test can be described thus: Suspension quantitative sterilization experiment, Pseudomonas aeruginosa ATCC 27853. Particulars: suspension method, 6.25 g/L, action time 30 min. The protocol: as §1, §2, §3, §4, §5, §6, §7, §8, §9, §10, §11
The subject of test [4] is Bacillus subtilis var. niger spores ATCC 9372. The test can be described thus: Suspension quantitative experiment, Bacillus subtilis var. niger spores. Particulars: for log reduction at 15000 µg/mL: Bacillus subtilis, ATCC9372, 0.5 h, read-out: Activity (killing logarithmic value); for Killing logarithmic value: suspension method. Here is the method: (4) Operation Method of Suspension Quantitative Experiment:
a. The Bacillus subtilis var. niger spores ATCC 9372 freeze-dried strain tube was provided, opened up under an aseptic condition, and an appropriate amount of nutrient broth was added thereto with a capillary pipette. The strain was melted and dispersed by gently blowing and sucking several times. A test tube containing 5.0 mL-10.0 mL of nutrient broth medium was provided, and a small amount of bacterial suspension was dropped thereto, and incubated at 37° C. for 18 h-24 h. The bacterial suspension of the first generation culture was taken by using an inoculation loop.
b. The monoclonal strains of the first generation culture were picked out and placed in 3 mL of NMB. The strains were shaken in a constant temperature culture shaker for 3 h with a rotation speed of 220 rpm, obtaining a bacterial suspension with a concentration of (1-5)×10^8 CFU/mL.
as §4
d. After the experimental bacteria interacted with the sample to be tested for the predetermined time. 0.5 mL of the mixture of the experimental bacteria and a disinfectant was drawn respectively and added to 4.5 mL of a neutralizer, and mixed to be uniform.
as §6
h. At the same time, PBS buffer was used to replace the sample to be tested, and a parallel test was performed as a positive control.
f. All test samples were placed in a 37° C. incubator overnight, and the results were observed.
g. The experiment was repeated for 3 times, the concentration of viable bacteria (CFU/mL) of each group was calculated, and converted to logarithmic value (N), and then the killing logarithmic value was calculated according to the following equation:
as §10, §11

Test [5] has the same test system. The test can be described thus: Carrier immersion quantitative sterilization test. The conditions noted are these: carrier method. The protocol: (5) Operation Method of the Carrier Immersion Quantitative Sterilization Test:
a. A sterile small plate was provided, and marked with the concentration of the sample to be tested injected. The sample to be tested of the corresponding concentration was drawn and injected into the plate in an amount of 5.0 mL per piece.
b. 3 pieces of Bacillus subtilis var. niger spores were placed on the plate by using a sterile tweezer, and soaked in the sample to be tested.
c. After the bacteria and drugs interacted for each predetermined time, the bacteria pieces were taken out by using a sterile tweezer and transferred into a test tube containing 5.0 mL of a neutralizer. The test tube was vibrated 80 times in the palm of the hand to wash the bacteria on the bacteria piece into the neutralization solution, left to stand for another 10 min to fully neutralize. Finally after further mixing, 1.0 mL of the mixture was drawn and directly inoculated onto the plate, 2 plates for each pipette, and the number of viable bacteria was determined.
d. Another plate was provided, and 10.0 mL of PBS buffer was injected instead of the sample to be tested. 2 pieces of bacteria were added thereto as the positive control group, and the subsequent test steps and viable bacteria culture and counting were the same as the above test groups.
e. All test samples were cultured overnight in a 37° C. incubator, and the results were observed.
f. The experiment was repeated for 3 times (including the control group), and the number of viable bacteria (CFU/piece) in each group was calculated and converted to a logarithmic value (N).

Test [6] concerns Escherichia coli ATCC 25922. The test can be described thus: Neutralizer identification experiment, Escherichia coli. The protocol:
(§12) (4) Experimental Method for Selecting a Neutralizer:
(§13) Escherichia coli ATCC 25922 and Staphylococcus aureus ATCC 29213 were used as the experimental strains, and the concentration of the drug to be tested was set to be 2.5 g/L. The experiment was carried out according to the suspension quantitative sterilization procedure, with three repetitions, and six parallel groups:
(§14) Group I: 100 μL of a bacterial suspension (Escherichia coli ATCC 25922 with a concentration of 1×10^8 CFU/mL and Staphylococcus aureus ATCC 29213 with a concentration of 1×10^8 CFU/mL) interacted with 400 μL of the drug to be tested for 5 min; 50 μL of the mixed solution and 450 μL of PBS buffer were mixed to be uniform and diluted; the viable bacteria therein was counted;
(§15) Group II: 100 μL a bacterial suspension (Escherichia coli ATCC 25922 with a concentration of 1×10^8 CFU/mL and Staphylococcus aureus ATCC 29213 with a concentration of 1×10^8 CFU/mL) interacted with 400 μL of the drug to be tested for 5 min; 50 μL of the mixed solution and 450 μL of a neutralizer were mixed to be uniform and reacted for 10 min, and diluted; the viable bacteria therein was counted;
(§16) Group III: 10 μL of a bacterial suspension, 40 μL of sterile water, and 450 μL of a neutralizer were reacted for 10 min; the reaction solution was diluted, and the viable bacteria therein was counted;
(§17) Group V: 100 μL of bacterial suspension and 400 μL of a neutralizer were reacted for 5 min; 50 μL of the mixture and 450 μL of PBS buffer were mixed to be uniform, and then diluted; the viable bacteria therein was counted;
(§18) Group VI: a mixture of culture medium and PBS buffer was used as negative control.
(§19) Determination of the Results:
(§20) Group I had no bacteria growth or a small amount of bacteria growth;
(§21) Group II had bacteria growth, and the number of bacteria was not less than 100 CFU/mL;
(§22) the error rate of the number of bacteria between the Group III, Group IV, and Group V was less than or equal to 15%;
(§23) Group VI had no bacteria growth.

Test [7] deals with Staphylococcus aureus ATCC 29213. Nature of the test: Neutralizer identification experiment, Staphylococcus aureus. Here is the method:
as §12, §13, §14, §15, §16, §17, §18, §19, §20, §21, §22, §23

Setting [8] is: 2.5 g/L drug reacted with neutralizer 10 min, then bacterial suspension added.
Setting [9] is: 2.5 g/L drug, 5 min, then mixed with PBS buffer.
Where [10] appears, read: 2.5 g/L drug, 5 min, then neutralizer 10 min.

For `Cc1ccc(C(C(=O)O)c2ccc(O)cc2)cc1` (stereo not shown) [Example 4, 2-(4-hydroxyphenyl)-2-p-tolueneacetic acid], the “Activity (killing logarithmic value)” value in test [1] was determined as 0.78; in test [2], 0.75; in test [3], 0.78. Besides, the log reduction at 15000 µg/mL in test [4] came to 1.54.
As to `CC(C)NC(=O)C(c1ccccc1)c1ccc(O)cc1` (stereo not shown) [Example 2, 2-(4-hydroxyphenyl)-N-isopropyl-2-phenylacetamide], the figures for the “Activity (killing logarithmic value)” value in test [1], in test [2] and in test [3] were 0.97, 0.89 and 0.99, respectively. Moreover, the log reduction at 15000 µg/mL in test [4] amounted to 0.98.
Regarding `O=Cc1ccccc1C=O` [o-Phthalaldehyde solution, o-Phthalaldehyde], the Killing logarithmic value in test [4] (5 g/L, 10 min) is given as 5.23; in test [4] (5 g/L, 20 min), 5.31; in test [4] (5 g/L, 30 min) it was 5.39; in test [4] (10 g/L, 10 min), 5.41; in test [4] (10 g/L, 20 min), 5.49; in test [4] (10 g/L, 30 min), 5.57. Also, the Killing logarithmic value in test [4] (15 g/L, 10 min) is recorded as 5.53; in test [4] (15 g/L, 20 min), 5.68; in test [4] (15 g/L, 30 min) it was 5.71; in test [5] (5 g/L, 1 h) it was 1.95; in test [5] (5 g/L, 2 h), 3.23; in test [5] (5 g/L, 3 h) it was 5.21. In addition, the Killing logarithmic value in test [5] (5 g/L, 4 h) is recorded as 5.53; in test [5] (10 g/L, 1 h) it was 2.19; in test [5] (10 g/L, 2 h) it was 5.12; in test [5] (10 g/L, 3 h) it was 5.26; in test [5] (10 g/L, 4 h), 5.53; in test [5] (15 g/L, 1 h) it was 3.23. Also, the Killing logarithmic value in test [5] (15 g/L, 2 h) is listed as 5.21; in test [5] (15 g/L, 3 h), 5.36; in test [5] (15 g/L, 4 h) it was 5.53.
Take `O=C(O)C(c1ccccc1)c1ccccc1` [Example 7, 2,2-diphenylacetic acid]: the “Activity (killing logarithmic value)” value amounted to 1.02 in test [1], 1.45 in test [2] and 1.29 in test [3]. In test [4], the log reduction at 15000 µg/mL was found to be 1.97.
As for `CNC(=O)C(c1ccc(O)c(O)c1)c1ccco1` (stereo not shown) [Example 5, 2-(3,4-dihydroxyphenyl)-2-(2-furyl)-N-methylacetamide], in test [4], the log reduction at 15000 µg/mL was determined as 5.6. The “Viable bacteria count, Group IV” value is 6 × 10^6 CFU/mL in test [6] (setting [8]) and 7 × 10^5 CFU/mL in test [7] (setting [8]). The “Viable bacteria count, Group I” value was 2 × 10^4 CFU/mL in test [6] (setting [9]) and 3 × 10^4 CFU/mL in test [7] (setting [9]). The “Viable bacteria count, Group II” value is on record as 400 CFU/mL in test [6] (setting [10]) and 5 × 10^4 CFU/mL in test [7] (setting [10]).

(Values after US20220279787A1, “a-Substituted Phenyl Structure-Containing Compound, Preparation Method Thereof, and Disinfectant” (Henan Ruibo Pharmaceutical Technology Co. Ltd., priority 2019, published 2022).)
